Reference: patent US7704995B2 (Exelixis, Inc., priority 2003, dated 2010)
pIC50: −log10 of the molar value.

Molecular target: T1, Chk1 (Homo sapiens, UniProt O14757)
T1 construct: purchased Upstate Biotechnology
T1 sequence (O14757 1-476): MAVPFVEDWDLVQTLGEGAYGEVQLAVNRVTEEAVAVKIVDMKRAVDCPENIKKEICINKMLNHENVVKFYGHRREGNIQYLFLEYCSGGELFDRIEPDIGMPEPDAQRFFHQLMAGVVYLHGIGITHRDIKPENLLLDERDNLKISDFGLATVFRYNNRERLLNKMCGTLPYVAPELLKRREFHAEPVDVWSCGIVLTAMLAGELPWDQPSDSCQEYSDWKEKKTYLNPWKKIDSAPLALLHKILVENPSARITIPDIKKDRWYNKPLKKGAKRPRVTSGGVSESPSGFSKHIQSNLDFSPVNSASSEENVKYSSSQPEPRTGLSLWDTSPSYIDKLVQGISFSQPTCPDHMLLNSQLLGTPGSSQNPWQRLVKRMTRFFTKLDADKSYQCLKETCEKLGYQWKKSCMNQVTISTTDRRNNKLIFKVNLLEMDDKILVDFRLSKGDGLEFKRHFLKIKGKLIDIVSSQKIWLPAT
Experiment: Chk1 kinase assay: incorporation of γ-33P ATP into immobilized myelin basic protein
Type: biochemical
Settings: read-out: Chk1 IC50
How it was run: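 Enzyme activity is measured as γ-33P transfer from ATP onto immobilized MBP over 1 h at room temperature, with Chk1 at 10 nM/10 μM unlabeled ATP and Chk2 at 20 nM/30 μM unlabeled ATP. Compounds are tested in 1% DMSO.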

| SMILES | pIC50 |
| --- | --- |
| CNC(=O)c1nc(-c2cccc(OCCN3CCN(C)CC3)c2)cnc1N [Example 192, 3-amino-N-methyl-6-(3-{[2-(4-methylpiperazin-1-yl)ethyl]oxy}phenyl)pyrazine-2-carboxamide] | 6.00 to 7.30 |
| CNC(=O)c1nc(-c2cccc(OCCN3CCN(CCO)CC3)c2)cnc1N [Example 193, 3-amino-6-[3-({2-[4-(2-hydroxyethyl)piperazin-1-yl]ethyl}oxy)phenyl]-N-methylpyrazine-2-carboxamide] | 6.00 to 7.30 |
| CNC(=O)c1nc(-c2cccc(OCCN3CCc4ccccc4C3)c2)cnc1N [Example 194, 3-amino-6-(3-{[2-(3,4-dihydroisoquinolin-2(1H)-yl)ethyl]oxy}phenyl)-N-methylpyrazine-2-carboxamide] | 6.00 to 7.30 |
| CCOC(=O)N1CCN(CCOc2cccc(-c3cnc(N)c(C(=O)NC)n3)c2)CC1 [Example 195, ethyl 4-{2-[(3-{5-amino-6-[(methylamino)carbonyl]pyrazin-2-yl}phenyl)oxy]ethyl}piperazine-1-carboxylate] | 5.00 to 6.00 |
| CNC(=O)c1nc(-c2cccc(C(=O)N[C@H]3CCN(Cc4ccccc4)C3)c2)cnc1N [Example 196, 3-amino-N-methyl-6-[3-({[(3S)-1-(phenylmethyl)pyrrolidin-3-yl]amino}carbonyl)phenyl]pyrazine-2-carboxamide] | 6.00 to 7.30 |
| CNC(=O)c1nc(-c2cccc(C(=O)N[C@@H]3CCN(Cc4ccccc4)C3)c2)cnc1N [Example 197, 3-amino-N-methyl-6-[3-({[(3R)-1-(phenylmethyl)pyrrolidin-3-yl]amino}carbonyl)phenyl]pyrazine-2-carboxamide] | 6.00 to 7.30 |
| CNC(=O)c1nc(-c2cccc(C(=O)NCCOc3ccccc3)c2)cnc1N [Example 198, 3-amino-N-methyl-6-[3-({[2-(phenyloxy)ethyl]amino}carbonyl)phenyl]pyrazine-2-carboxamide] | 6.00 to 7.30 |
| CNC(=O)c1nc(-c2cccc(C(=O)NCCN3CCN(Cc4ccccc4)CC3)c2)cnc1N [Example 199, 3-amino-N-methyl-6-{3-[({2-[4-(phenylmethyl)piperazin-1-yl]ethyl}amino)carbonyl]phenyl}pyrazine-2-carboxamide] | 6.00 to 7.30 |
| CNC(=O)c1nc(-c2cccc(C(=O)NCC3CCN(Cc4ccccc4)CC3)c2)cnc1N [Example 200, 3-amino-N-methyl-6-{3-[({[1-(phenylmethyl)piperidin-4-yl]methyl}amino)carbonyl]phenyl}pyrazine-2-carboxamide] | ≤ 5.00 |
| CNC(=O)c1nc(-c2cccc(C(=O)NCc3ccoc3)c2)cnc1N [Example 201, 3-amino-6-(3-{[(furan-3-ylmethyl)amino]carbonyl}phenyl)-N-methylpyrazine-2-carboxamide] | 6.00 to 7.30 |
| CNC(=O)c1nc(-c2cccc(C(=O)NCC3COc4ccccc4O3)c2)cnc1N (stereo not shown) [Example 202, 3-amino-6-(3-{[(2,3-dihydro-1,4-benzodioxin-2-ylmethyl)amino]carbonyl}phenyl)-N-methylpyrazine-2-carboxamide] | 6.00 to 7.30 |
| CNC(=O)c1nc(-c2cccc(C(=O)NCc3ccco3)c2)cnc1N [Example 203, 3-amino-6-(3-{[(furan-2-ylmethyl)amino]carbonyl}phenyl)-N-methylpyrazine-2-carboxamide] | 6.00 to 7.30 |
| CNC(=O)c1nc(-c2cccc(C(=O)NCC3CN(Cc4ccccc4)CCO3)c2)cnc1N (stereo not shown) [Example 204, 3-amino-N-methyl-6-{3-[({[4-(phenylmethyl)morpholin-2-yl]methyl}amino)carbonyl]phenyl}pyrazine-2-carboxamide] | 6.00 to 7.30 |
| CNC(=O)c1nc(-c2cccc(C(=O)NCc3ccc4c(c3)OCCO4)c2)cnc1N [Example 205, 3-amino-6-(3-{[(2,3-dihydro-1,4-benzodioxin-6-ylmethyl)amino]carbonyl}phenyl)-N-methylpyrazine-2-carboxamide] | > 7.30 |
| CNC(=O)c1nc(-c2cccc(C(=O)NCc3ccc4c(c3)CCO4)c2)cnc1N [Example 207, 3-amino-6-(3-{[(2,3-dihydro-1-benzofuran-5-ylmethyl)amino]carbonyl}phenyl)-N-methylpyrazine-2-carboxamide] | 6.00 to 7.30 |
| CNC(=O)c1nc(-c2cccc(C(=O)NCc3cc(F)cc4c3OCOC4)c2)cnc1N [Example 208, 3-amino-6-[3-({[(6-fluoro-4H-1,3-benzodioxin-8-yl)methyl]amino}carbonyl)phenyl]-N-methylpyrazine-2-carboxamide] | 6.00 to 7.30 |
| CNC(=O)c1nc(-c2cccc(NC(=O)Cc3ccc(Cl)cc3Cl)c2)cnc1N [Example 209, 3-amino-6-(3-{[(2,4-dichlorophenyl)acetyl]amino}phenyl)-N-methylpyrazine-2-carboxamide] | > 7.30 |

| SMILES | pIC50 |
| --- | --- |
| CNC(=O)c1nc(-c2cccc(NC(=O)Cc3ccc(Cl)c(Cl)c3)c2)cnc1N [Example 210, 3-amino-6-(3-{[(3,4-dichlorophenyl)acetyl]amino}phenyl)-N-methylpyrazine-2-carboxamide] | 6.00 to 7.30 |
| CNC(=O)c1nc(-c2cccc(NC(=O)Cc3ccc(C(F)(F)F)cc3)c2)cnc1N [Example 211, 3-amino-N-methyl-6-[3-({[4-(trifluoromethyl)phenyl]acetyl}amino)phenyl]pyrazine-2-carboxamide] | 6.00 to 7.30 |
| CNC(=O)c1nc(-c2cccc(C(=O)NCc3cc(C)cc(C)c3)c2)cnc1N [Example 212, 3-amino-6-[3-({[(3,5-dimethylphenyl)methyl]amino}carbonyl)phenyl]-N-methylpyrazine-2-carboxamide] | 6.00 to 7.30 |
| CNC(=O)c1nc(-c2cccc(C(=O)NCc3cc(Cl)ccc3C)c2)cnc1N [Example 213, 3-amino-6-[3-({[(5-chloro-2-methylphenyl)methyl]amino}carbonyl)phenyl]-N-methylpyrazine-2-carboxamide] | 6.00 to 7.30 |
| CNC(=O)c1nc(-c2cccc(C(=O)NCc3ccc(C)cc3C)c2)cnc1N [Example 214, 3-amino-6-[3-({[(2,4-dimethylphenyl)methyl]amino}carbonyl)phenyl]-N-methylpyrazine-2-carboxamide] | 6.00 to 7.30 |
| CNC(=O)c1nc(-c2cccc(C(=O)NCc3cccc(F)c3F)c2)cnc1N [Example 215, 3-amino-6-[3-({[(2,3-difluorophenyl)methyl]amino}carbonyl)phenyl]-N-methylpyrazine-2-carboxamide] | 5.00 to 6.00 |
| CNC(=O)c1nc(-c2cccc(C(=O)NCc3ccc(SC)cc3)c2)cnc1N [Example 216, 3-amino-N-methyl-6-{3-[({[4-(methylthio)phenyl]methyl}amino)carbonyl]phenyl}pyrazine-2-carboxamide] | > 7.30 |
| CNC(=O)c1nc(-c2cccc(C(=O)NCC(C)C)c2)cnc1N [Example 217, 3-amino-N-methyl-6-(3-{[(2-methylpropyl)amino]carbonyl}phenyl)pyrazine-2-carboxamide] | 5.00 to 6.00 |
| CNC(=O)c1nc(-c2cccc(C(=O)NCc3cccc(OC(F)(F)F)c3)c2)cnc1N [Example 218, 3-amino-N-methyl-6-(3-{[({3-[(trifluoromethyl)oxy]phenyl}methyl)amino]carbonyl}phenyl)pyrazine-2-carboxamide] | 5.00 to 6.00 |
| CNC(=O)c1nc(-c2cccc(C(=O)NCC3CC3)c2)cnc1N [Example 219, 3-amino-6-(3-{[(cyclopropylmethyl)amino]carbonyl}phenyl)-N-methylpyrazine-2-carboxamide] | 6.00 to 7.30 |
| CNC(=O)c1nc(-c2cccc(C(=O)NC3CCCC3)c2)cnc1N [Example 220, 3-amino-6-{3-[(cyclopentylamino)carbonyl]phenyl}-N-methylpyrazine-2-carboxamide] | 5.00 to 6.00 |
| CNC(=O)c1nc(-c2cccc(C(=O)Nc3ccc(C)cc3)c2)cnc1N [Example 221, 3-amino-N-methyl-6-(3-{[(4-methylphenyl)amino]carbonyl}phenyl)pyrazine-2-carboxamide] | 5.00 to 6.00 |
| CNC(=O)c1nc(-c2cccc(C(=O)Nc3ccc(OC)cc3)c2)cnc1N [Example 222, 3-amino-N-methyl-6-[3-({[4-(methyloxy)phenyl]amino}carbonyl)phenyl]pyrazine-2-carboxamide] | 6.00 to 7.30 |
| CNC(=O)c1nc(-c2cccc(C(=O)NCc3ccc4c(c3)OCO4)c2)cnc1N [Example 223, 3-amino-6-(3-{[(1,3-benzodioxol-5-ylmethyl)amino]carbonyl}phenyl)-N-methylpyrazine-2-carboxamide] | 6.00 to 7.30 |
| CNC(=O)c1nc(-c2cccc(C(=O)NCc3cccc(-c4ccccc4)c3)c2)cnc1N [Example 224, 3-amino-6-(3-{[(biphenyl-3-ylmethyl)amino]carbonyl}phenyl)-N-methylpyrazine-2-carboxamide] | 6.00 to 7.30 |
| CNC(=O)c1nc(-c2cccc(C(=O)NC(C)(C)c3ccccc3)c2)cnc1N [Example 225, 3-amino-N-methyl-6-(3-{[(1-methyl-1-phenylethyl)amino]carbonyl}phenyl)pyrazine-2-carboxamide] | 5.00 to 6.00 |
| CNC(=O)c1nc(-c2cccc(C(=O)NCc3ccc(F)cc3F)c2)cnc1N [Example 226, 3-amino-6-[3-({[(2,4-difluorophenyl)methyl]amino}carbonyl)phenyl]-N-methylpyrazine-2-carboxamide] | 6.00 to 7.30 |
